{"source": "ChEMBL document CHEMBL1137425", "about": "“Design, synthesis and evaluation of novel uracil amino acid conjugates for the inhibition of Trypanosoma cruzi dUTPase” (Bioorg Med Chem Lett, 2006)", "key": {"Trypanosoma cruzi": {"system": "Trypanosoma cruzi", "experiment": "Antitrypanosomal activity against Trypanosoma cruzi", "assay_type": "functional, organism-based"}, "L6": {"system": "L6", "experiment": "Cytotoxicity against rat L6 cells", "assay_type": "functional, cell-based"}, "[1]": {"biological_target": "T1, Deoxyuridine triphosphatase (Trypanosoma cruzi (strain CL Brener), UniProt Q4DI50)", "T1 sequence (Q4DI50 whole entry)": "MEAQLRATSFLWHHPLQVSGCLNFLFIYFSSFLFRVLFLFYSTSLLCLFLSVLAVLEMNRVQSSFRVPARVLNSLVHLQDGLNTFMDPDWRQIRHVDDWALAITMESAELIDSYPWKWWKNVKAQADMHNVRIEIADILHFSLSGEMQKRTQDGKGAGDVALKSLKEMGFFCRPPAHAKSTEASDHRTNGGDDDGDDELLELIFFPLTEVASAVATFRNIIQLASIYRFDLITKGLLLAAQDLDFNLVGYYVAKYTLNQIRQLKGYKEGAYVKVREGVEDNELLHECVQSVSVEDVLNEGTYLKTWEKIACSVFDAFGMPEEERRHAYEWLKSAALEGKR", "experiment": "Inhibition of Trypanosoma cruzi dUTPase at 1 mM"}}, "data": [{"smiles": "C[C@H](NC(=O)Cn1ccc(=O)[nH]c1=O)C(=O)NCC(=O)O", "values": [{"measurement": "IC50", "setting": "Trypanosoma cruzi", "result": "> 100", "unit": "µM"}, {"measurement": "IC50", "setting": "L6", "result": "> 301", "unit": "µM"}, {"measurement": "Ki", "setting": "[1]", "result": "> 1000", "unit": "µM"}]}, {"smiles": "C[C@H](NC(=O)Cn1ccc(=O)[nH]c1=O)C(=O)N[C@@H](CC(=O)O)C(=O)O", "values": [{"measurement": "IC50", "setting": "Trypanosoma cruzi", "result": "> 84", "unit": "µM"}, {"measurement": "IC50", "setting": "L6", "result": "> 252", "unit": "µM"}, {"measurement": "Ki", "setting": "[1]", "result": "> 1000", "unit": "µM"}]}, {"smiles": "C[C@H](NC(=O)Cn1ccc(=O)[nH]c1=O)C(=O)N[C@@H](CCC(N)=O)C(=O)O", "values": [{"measurement": "IC50", "setting": "Trypanosoma cruzi", "result": "> 81", "unit": "µM"}, {"measurement": "IC50", "setting": "L6", "result": "> 243", "unit": "µM"}, {"measurement": "Ki", "setting": "[1]", "result": "> 1000", "unit": "µM"}]}, {"smiles": "C[C@H](NC(=O)Cn1ccc(=O)[nH]c1=O)C(=O)N[C@H](C(=O)O)[C@@H](C)O", "values": [{"measurement": "IC50", "setting": "Trypanosoma cruzi", "result": "> 87", "unit": "µM"}, {"measurement": "IC50", "setting": "L6", "result": "> 262", "unit": "µM"}, {"measurement": "Ki", "setting": "[1]", "result": "> 1000", "unit": "µM"}]}, {"smiles": "C[C@H](NC(=O)Cn1ccc(=O)[nH]c1=O)C(=O)N[C@@H](CCCCN)C(=O)O", "values": [{"measurement": "IC50", "setting": "Trypanosoma cruzi", "result": "> 81", "unit": "µM"}, {"measurement": "IC50", "setting": "L6", "result": "> 243", "unit": "µM"}, {"measurement": "Ki", "setting": "[1]", "result": "> 1000", "unit": "µM"}]}, {"smiles": "NCCCC[C@H](NC(=O)CNC(=O)Cn1ccc(=O)[nH]c1=O)C(=O)O", "values": [{"measurement": "IC50", "setting": "Trypanosoma cruzi", "result": "> 84", "unit": "µM"}, {"measurement": "IC50", "setting": "L6", "result": "> 253", "unit": "µM"}, {"measurement": "Ki", "setting": "[1]", "result": "> 1000", "unit": "µM"}]}, {"smiles": "O=C(O)CNC(=O)Cn1ccc(=O)[nH]c1=O", "values": [{"measurement": "IC50", "setting": "Trypanosoma cruzi", "result": "> 132", "unit": "µM"}, {"measurement": "IC50", "setting": "L6", "result": "> 396", "unit": "µM"}, {"measurement": "Ki", "setting": "[1]", "result": "> 1000", "unit": "µM"}]}, {"smiles": "O=C(Cn1ccc(=O)[nH]c1=O)NCC(=O)N[C@@H](Cc1ccc(O)cc1)C(=O)O", "values": [{"measurement": "IC50", "setting": "Trypanosoma cruzi", "result": "> 76", "unit": "µM"}, {"measurement": "IC50", "setting": "L6", "result": "> 230", "unit": "µM"}, {"measurement": "Ki", "setting": "[1]", "result": "> 1000", "unit": "µM"}]}, {"smiles": "C[C@@H](O)[C@H](NC(=O)CNC(=O)Cn1ccc(=O)[nH]c1=O)C(=O)O", "values": [{"measurement": "IC50", "setting": "Trypanosoma cruzi", "result": "> 91", "unit": "µM"}, {"measurement": "IC50", "setting": "L6", "result": "> 274", "unit": "µM"}, {"measurement": "Ki", "setting": "[1]", "result": "> 1000", "unit": "µM"}]}, {"smiles": "C[C@H](NC(=O)Cn1ccc(=O)[nH]c1=O)C(=O)N[C@@H](CCC(=O)O)C(=O)O", "values": [{"measurement": "IC50", "setting": "Trypanosoma cruzi", "result": "> 81", "unit": "µM"}, {"measurement": "IC50", "setting": "L6", "result": 210, "unit": "µM"}, {"measurement": "Ki", "setting": "[1]", "result": "> 1000", "unit": "µM"}]}, {"smiles": "C[C@H](NC(=O)Cn1ccc(=O)[nH]c1=O)C(=O)N[C@@H](Cc1ccc(O)cc1)C(=O)O", "values": [{"measurement": "IC50", "setting": "Trypanosoma cruzi", "result": "> 74", "unit": "µM"}, {"measurement": "IC50", "setting": "L6", "result": 214, "unit": "µM"}, {"measurement": "Ki", "setting": "[1]", "result": "> 1000", "unit": "µM"}]}, {"smiles": "O=C(Cn1ccnc1[N+](=O)[O-])NCc1ccccc1", "note": "[BENZNIDAZOLE]", "values": [{"measurement": "IC50", "setting": "Trypanosoma cruzi", "result": 1.04, "unit": "µM"}]}, {"smiles": "O=c1ccn([C@H]2C[C@H](O)[C@@H](COP(=O)(O)O)O2)c(=O)[nH]1", "note": "[DEOXYURIDINE MONOPHOSPHATE]", "values": [{"measurement": "Ki", "setting": "[1]", "result": 18.4, "unit": "µM"}]}, {"smiles": "COc1cc([C@@H]2c3cc4c(cc3[C@H](O)[C@H]3COC(=O)[C@H]23)OCO4)cc(OC)c1OC", "note": "[PODOFILOX]", "values": [{"measurement": "IC50", "setting": "L6", "result": 0.15, "unit": "µM"}]}]}
